Measurements: publication PMC4921870, “The insect repellent N,N-diethyl-m-toluamide (DEET) induces angiogenesis via allosteric modulation of the M3 muscarinic receptor in endothelial cells” (Scientific Reports, 2016)

Target: T1, M3 muscarinic receptor (Homo sapiens, UniProt P20309)
T1 construct: gene CHRM3; recombinant M3 receptor expressed in HEK-293 cells (HEK-293/M3)
Assay: leftward shift of carbachol Ca2+ response in HEK-293/M3 cells (fluo-4); [3H]-4-DAMP not displaced
Format: cell-based

T1 sequence (P20309 whole entry): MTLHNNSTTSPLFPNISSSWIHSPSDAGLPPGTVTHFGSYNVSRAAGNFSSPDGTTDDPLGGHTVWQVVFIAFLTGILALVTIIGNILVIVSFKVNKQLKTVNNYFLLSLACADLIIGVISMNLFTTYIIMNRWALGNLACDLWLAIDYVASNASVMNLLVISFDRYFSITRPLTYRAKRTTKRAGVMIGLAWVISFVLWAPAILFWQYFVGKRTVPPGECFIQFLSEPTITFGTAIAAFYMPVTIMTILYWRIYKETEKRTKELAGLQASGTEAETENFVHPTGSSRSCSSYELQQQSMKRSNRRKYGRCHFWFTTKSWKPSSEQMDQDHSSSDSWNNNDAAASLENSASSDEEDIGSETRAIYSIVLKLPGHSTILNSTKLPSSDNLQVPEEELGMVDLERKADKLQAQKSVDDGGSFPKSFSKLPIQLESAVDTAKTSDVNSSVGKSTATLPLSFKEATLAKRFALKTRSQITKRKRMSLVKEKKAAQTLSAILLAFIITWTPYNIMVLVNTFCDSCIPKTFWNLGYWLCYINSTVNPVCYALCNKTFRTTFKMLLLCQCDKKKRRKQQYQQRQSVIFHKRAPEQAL

With `CCN(CC)C(=O)c1cccc(C)c1` [DEET, N,N-diethyl-meta-toluamide] the “leftward shift of carbachol Ca2+ response in HEK-293/M3 cells (fluo-4); [3H]-4-D” value was “Whatever the concentration of DEET used, it was able to induce a leftward shift of the calcium response induced by carbachol”.
